# *1 amine or outer side, *2 acyl side, *3 side chain or, on linkers, in order; H or OH if unused. Where a SMILES comes first, the peptide text is derived from it. Bridges are numbered along the chain shown (N, C = ends). [ ]: non-standard residue; d: D form. The star is where a group is joined. X1 = COc1cc2cc(c1Cl)N(C)C(=O)C[C@H](OC(=O)[C@H](C)N(C)C(=O)CCSSC(C)CCC(=O)*)[C@]1(C)O[C@H]1[C@H](C)[C@@H]1C[C@@](O)(NC(=O)O1)[C@H](OC)/C=C/C=C(\C)C2; 1Nal = N[C@@H](Cc1cccc2ccccc12)C(=O)O; TBMB = c1c(C[*:1])cc(C[*:3])cc1C[*:2]; Tle = CC(C)(C)[C@H](N)C(=O)O; βAla = NCCC(=O)O; Sar = CNCC(=O)O
# How the values were obtained:
# [1] = test system: MT1-positive tumor xenograft models (e.g. HT1080 fibrosarcoma; HCC1806 triple negative breast cancer; SNU-16 gastric cancer); assay: Selection of MT1-positive tumor xenograft models; assay type: in vivo
# Source text: Efficacy in this model was reduced in the conjugates containing the least cleavable linkers.
# HT-29 xenograft = assay: In vivo efficacy of BT1718 in HT-29 xenograft; design: species or system Mus Musculus; key to Best response at 10 mg/kg: CR complete response; PR partial response
# Description: (§1) The objective of this study was to evaluate the in vivo anti-tumor efficacy of BT1718in treatment of HT1080, NCI-H292, NCI-H1975, MDA-MB-231, HCC1806, RPMI2650, HCT-15, HT-29 and SNU-16 xenograft in BALB/c nude mice.
# (§2) The HT1080, NCI-H292, NCI-H1975, MDA-MB-231, HCC1806, RPMI2650, HCT-15, HT-29 and SNU-16 tumor cells were maintained in vitro as a monolayer culture in medium supplemented with 10% heat inactivated fetal bovine serum at 37° C. in an […]. The tumor cells will be routinely subcultured twice weekly by trypsin-EDTA treatment. The cells growing in an exponential growth phase will be harvested and counted for tumor inoculation.
# (§3) Mouse was inoculated subcutaneously at the right flank with tumor cells for tumor development. The animals were randomized and treatment was started when the average tumor reaches certain volume for the efficacy study, the inoculating cell amounts and starting tumor size were shown as below in Table 9. The test article administration and the animal numbers in each group were shown in the experimental design in Table 10.
# (§4) All the procedures related to animal handling, care and the treatment in the study were performed according to the guidelines of the Association for Assessment and Accreditation of Laboratory Animal Care (AAALAC). At the time of routine monitoring, the animals were daily checked for any effects of tumor growth and treatments on normal behavior such as mobility, food and water consumption (by looking only), body weight gain/loss (body weights were measured every day), eye/hair matting and any other abnormal effect as stated in the protocol. Death and observed clinical signs were recorded on the basis of the numbers of animals within each subset.
# (§5) The major endpoint was to see if the tumor growth could be delayed or mice could be cured. Tumor size was measured three times weekly in two dimensions using a caliper, and the volume was expressed in mm^3 using the formula: V=0.5 a×b^2 where a and b are the long and short diameters of the tumor, respectively. The tumor size was then used for calculations of T/C value. The T/C value (in percent) is an indication of antitumor effectiveness; T and C are the mean volumes of the treated and control groups, respectively, on a given day.
# (§6) TGI was calculated for each group using the formula: TGI (%)=[1−(Ti−T0)/(Vi−V0)]×100; Ti is the average tumor volume of a treatment group on a given day, T0 is the average tumor volume of the treatment group on the day of treatment start, Vi is the average tumor volume of the vehicle control group on the same day with Ti, and V0 is the average tumor volume of the vehicle group on the day of treatment start.
# (§7) Summary statistics, including mean and the standard error of the mean (SEM), are provided for the tumor volume of each group at each time point.
# (§8) Statistical analysis of difference in tumor volume among the groups was conducted on the data obtained at the best therapeutic time point after the final dose.
# (§9) A one-way ANOVA was performed to compare tumor volume among groups, and when a significant F-statistics (a ratio of treatment variance to the error variance) was obtained, comparisons between groups were carried out with Games-Howell test. All data were analyzed using Prism. P<0.05 was considered to be statistically significant.
# SNU-16 xenograft = assay: In vivo efficacy of BT1718 in SNU-16 xenograft; design: species or system Mus Musculus; key to Best response at 10 mg/kg: CR complete response; PR partial response
# Description: as §1, §2, §3, §4, §5, §6, §7, §8, §9
compound,measurement,setting,value
COc1cc2cc(c1Cl)N(C)C(=O)C[C@H](OC(=O)[C@H](C)N(C)C(=O)CCSSC(C)CCC(=O)NCCC(=O)N(C)CC(=O)N(C)CC(=O)N(C)CC(=O)N(C)CC(=O)N(C)CC(=O)N(C)CC(=O)N(C)CC(=O)N(C)CC(=O)N(C)CC(=O)N(C)CC(=O)N[C@@H](C)C(=O)N[C@H]1CSCc3cc4cc(c3)CSC[C@H](NC(=O)[C@@H](C)NC(=O)[C@H](Cc3cccc5ccccc35)NC(=O)[C@H](CCC(=O)O)NC(=O)[C@H](CC(N)=O)NC(=O)[C@@H](C)NC1=O)C(=O)N[C@@H](CCC(=O)O)C(=O)N[C@@H](CC(=O)O)C(=O)N[C@@H](Cc1ccccc1)C(=O)N[C@@H](Cc1ccc(O)cc1)C(=O)N[C@@H](CC(=O)O)C(=O)N[C@@H](C(C)(C)C)C(=O)N[C@H](C(N)=O)CSC4)[C@]1(C)O[C@H]1[C@H](C)[C@@H]1C[C@@](O)(NC(=O)O1)[C@H](OC)/C=C/C=C(\C)C2 (some centres unmarked) [BT1718] ({X1-βAla}-[Sar][Sar][Sar][Sar][Sar][Sar][Sar][Sar][Sar][Sar]AC[dA]NE[1Nal][dA]CEDFYD[Tle]C-NH2; linker 12-18-25 via TBMB (inferred)),tumor response,[1]; 10 mg/kg twice weekly,complete regressions in most models
same,minimally effective doses,[1]; weekly or twice weekly,3 to 10 mg/kg
same,tumor response,HT-29 xenograft; 10 mg/kg biw,"significant tumor inhibition effect, but didn't cause tumor regression"
same,Body Weight,"HT-29 xenograft; 1 mpk biw, day 0",23.0 ± 0.2 g
same,Tumor Volume,"HT-29 xenograft; 1 mpk biw, day 0",160 ± 27 mm^3
same,Body Weight,"HT-29 xenograft; 1 mpk biw, day 2",22.8 ± 0.2 g
same,Tumor Volume,"HT-29 xenograft; 1 mpk biw, day 2",189 ± 18 mm^3
same,Body Weight,"HT-29 xenograft; 1 mpk biw, day 4",22.3 ± 0.5 g
same,Tumor Volume,"HT-29 xenograft; 1 mpk biw, day 4",203 ± 13 mm^3
same,Body Weight,"HT-29 xenograft; 1 mpk biw, day 6",22.3 ± 0.5 g
same,Tumor Volume,"HT-29 xenograft; 1 mpk biw, day 6",260 ± 18 mm^3
same,Body Weight,"HT-29 xenograft; 1 mpk biw, day 8",22.3 ± 0.4 g
same,Tumor Volume,"HT-29 xenograft; 1 mpk biw, day 8",273 ± 35 mm^3
same,Body Weight,"HT-29 xenograft; 1 mpk biw, day 11",22.4 ± 0.7 g
same,Tumor Volume,"HT-29 xenograft; 1 mpk biw, day 11",453 ± 45 mm^3
same,Body Weight,"HT-29 xenograft; 1 mpk biw, day 13",22.3 ± 0.7 g
same,Tumor Volume,"HT-29 xenograft; 1 mpk biw, day 13",533 ± 43 mm^3
same,Body Weight,"HT-29 xenograft; 3 mpk biw, day 0",22.2 ± 0.2 g
same,Tumor Volume,"HT-29 xenograft; 3 mpk biw, day 0",159 ± 36 mm^3
same,Body Weight,"HT-29 xenograft; 3 mpk biw, day 2",22.1 ± 0.4 g
same,Tumor Volume,"HT-29 xenograft; 3 mpk biw, day 2",178 ± 41 mm^3
same,Body Weight,"HT-29 xenograft; 3 mpk biw, day 4",22.0 ± 0.5 g
same,Tumor Volume,"HT-29 xenograft; 3 mpk biw, day 4",214 ± 51 mm^3
same,Body Weight,"HT-29 xenograft; 3 mpk biw, day 6",22.4 ± 0.6 g
same,Tumor Volume,"HT-29 xenograft; 3 mpk biw, day 6",268 ± 70 mm^3
same,Body Weight,"HT-29 xenograft; 3 mpk biw, day 8",22.6 ± 0.6 g
same,Tumor Volume,"HT-29 xenograft; 3 mpk biw, day 8",297 ± 87 mm^3
same,Body Weight,"HT-29 xenograft; 3 mpk biw, day 11",22.0 ± 0.4 g
same,Tumor Volume,"HT-29 xenograft; 3 mpk biw, day 11",472 ± 129 mm^3
same,Body Weight,"HT-29 xenograft; 3 mpk biw, day 13",22.2 ± 0.3 g
same,Tumor Volume,"HT-29 xenograft; 3 mpk biw, day 13",616 ± 145 mm^3
same,Body Weight,"HT-29 xenograft; 10 mpk biw, day 0",24.6 ± 1.2 g
same,Tumor Volume,"HT-29 xenograft; 10 mpk biw, day 0",164 ± 32 mm^3
same,Body Weight,"HT-29 xenograft; 10 mpk biw, day 2",23.6 ± 1.2 g
same,Tumor Volume,"HT-29 xenograft; 10 mpk biw, day 2",177 ± 28 mm^3
same,Body Weight,"HT-29 xenograft; 10 mpk biw, day 4",22.1 ± 1.5 g
same,Tumor Volume,"HT-29 xenograft; 10 mpk biw, day 4",195 ± 36 mm^3
same,Body Weight,"HT-29 xenograft; 10 mpk biw, day 6",22.9 ± 1.5 g
same,Tumor Volume,"HT-29 xenograft; 10 mpk biw, day 6",232 ± 54 mm^3
same,Body Weight,"HT-29 xenograft; 10 mpk biw, day 8",21.2 ± 1.2 g
same,Tumor Volume,"HT-29 xenograft; 10 mpk biw, day 8",198 ± 44 mm^3
same,Body Weight,"HT-29 xenograft; 10 mpk biw, day 11",21.2 ± 1.7 g
same,Tumor Volume,"HT-29 xenograft; 10 mpk biw, day 11",182 ± 46 mm^3
same,Body Weight,"HT-29 xenograft; 10 mpk biw, day 13",21.7 ± 1.0 g
same,Tumor Volume,"HT-29 xenograft; 10 mpk biw, day 13",146 ± 32 mm^3
same,Best response at 10 mg/kg,"HT-29 xenograft; HT-29, 10 mg/kg",PR
same,TGI,"HT-29 xenograft; HT-29, 1 mpk, biw, day 14",24.0%
same,Tumor Volume,"HT-29 xenograft; HT-29, 1 mpk, biw, day 14",533 ± 43 mm^3
same,TGI,"HT-29 xenograft; HT-29, 3 mpk, biw, day 14",6.8%
same,Tumor Volume,"HT-29 xenograft; HT-29, 3 mpk, biw, day 14",616 ± 145 mm^3
same,TGI,"HT-29 xenograft; HT-29, 10 mpk, biw, day 14",103.6%
same,Tumor Volume,"HT-29 xenograft; HT-29, 10 mpk, biw, day 14",146 ± 32 mm^3
same,Minimally Effective Dose IV BIW,"HT-29 xenograft; HT-29, dose leading to tumor-stasis",10 mg/kg
same,Body Weight,"SNU-16 xenograft; 1 mpk biw, day 0",22.9 ± 0.5 g
same,Tumor Volume,"SNU-16 xenograft; 1 mpk biw, day 0",160 ± 24 mm^3
same,Body Weight,"SNU-16 xenograft; 1 mpk biw, day 2",22.8 ± 0.5 g
same,Tumor Volume,"SNU-16 xenograft; 1 mpk biw, day 2",160 ± 15 mm^3
same,Body Weight,"SNU-16 xenograft; 1 mpk biw, day 4",23.0 ± 0.5 g
same,Tumor Volume,"SNU-16 xenograft; 1 mpk biw, day 4",140 ± 12 mm^3
same,Body Weight,"SNU-16 xenograft; 1 mpk biw, day 7",23.0 ± 0.4 g
same,Tumor Volume,"SNU-16 xenograft; 1 mpk biw, day 7",137 ± 13 mm^3
same,Body Weight,"SNU-16 xenograft; 1 mpk biw, day 9",22.7 ± 0.5 g
same,Tumor Volume,"SNU-16 xenograft; 1 mpk biw, day 9",139 ± 9 mm^3
same,Body Weight,"SNU-16 xenograft; 1 mpk biw, day 11",23.0 ± 0.5 g
same,Tumor Volume,"SNU-16 xenograft; 1 mpk biw, day 11",142 ± 11 mm^3
same,Body Weight,"SNU-16 xenograft; 1 mpk biw, day 14",23.3 ± 0.5 g
same,Tumor Volume,"SNU-16 xenograft; 1 mpk biw, day 14",176 ± 9 mm^3
same,Body Weight,"SNU-16 xenograft; 3 mpk biw, day 0",22.7 ± 0.3 g
same,Tumor Volume,"SNU-16 xenograft; 3 mpk biw, day 0",161 ± 29 mm^3
same,Body Weight,"SNU-16 xenograft; 3 mpk biw, day 2",22.1 ± 0.5 g
same,Tumor Volume,"SNU-16 xenograft; 3 mpk biw, day 2",115 ± 13 mm^3
same,Body Weight,"SNU-16 xenograft; 3 mpk biw, day 4",21.8 ± 0.2 g
same,Tumor Volume,"SNU-16 xenograft; 3 mpk biw, day 4",36 ± 4 mm^3
same,Body Weight,"SNU-16 xenograft; 3 mpk biw, day 7",21.5 ± 0.3 g
same,Tumor Volume,"SNU-16 xenograft; 3 mpk biw, day 7",25 ± 4 mm^3
same,Body Weight,"SNU-16 xenograft; 3 mpk biw, day 9",20.0 ± 0.1 g
same,Tumor Volume,"SNU-16 xenograft; 3 mpk biw, day 9",18 ± 1 mm^3
same,Body Weight,"SNU-16 xenograft; 3 mpk biw, day 11",20.2 ± 0.6 g
same,Tumor Volume,"SNU-16 xenograft; 3 mpk biw, day 11",5 ± 3 mm^3
same,Body Weight,"SNU-16 xenograft; 3 mpk biw, day 14",20.6 ± 0.6 g
same,Tumor Volume,"SNU-16 xenograft; 3 mpk biw, day 14",0 ± 0 mm^3
same,Best response at 10 mg/kg,"SNU-16 xenograft; SNU-16, 10 mg/kg",CR
same,TGI,"SNU-16 xenograft; SNU-16, 1 mpk, biw, day 14",51.4%
same,Tumor Volume,"SNU-16 xenograft; SNU-16, 1 mpk, biw, day 14",304 ± 43 mm^3
same,TGI,"SNU-16 xenograft; SNU-16, 3 mpk, biw, day 14",94.5%
same,Tumor Volume,"SNU-16 xenograft; SNU-16, 3 mpk, biw, day 14",176 ± 9 mm^3
same,TGI,"SNU-16 xenograft; SNU-16, 10 mpk, biw, day 14",155%
same,Tumor Volume,"SNU-16 xenograft; SNU-16, 10 mpk, biw, day 14",0 ± 0 mm^3
same,Minimally Effective Dose IV BIW,"SNU-16 xenograft; SNU-16, dose leading to tumor-stasis",3 mg/kg
same,dosing suspension until re-growth to 150 mm3,SNU-16 xenograft; after 10 mg/kg biw,7 weeks
same,tumor response,SNU-16 xenograft; after 2 weeks 10 mg/kg biw,completely regressed
same,dosing time until tumor regression on resumed treatment,"SNU-16 xenograft; mouse, in vivo",1-2 weeks

# Source: patent US10441663B2, “Methods for treating cancer” (Bicycle Therapeutics Limited, priority 2016, dated 2019)
